Read-outs that look alike come from different tables or passages of the source.
Tests used:
[1] = target: T1, Recombinant human microsomal MAO-A (Homo sapiens, UniProt P21397); test: MAO-A activity assay (fluorimetric, Amplex Red, p-tyramine); format: biochemical; settings: for RA: MAO-A residual activity, active if lower than 60%
T1 construct: purchased Sigma Aldrich; host or cells: baculovirus infected insect cells (BTI-TN-5B1-4)
T1 sequence (P21397 1-527): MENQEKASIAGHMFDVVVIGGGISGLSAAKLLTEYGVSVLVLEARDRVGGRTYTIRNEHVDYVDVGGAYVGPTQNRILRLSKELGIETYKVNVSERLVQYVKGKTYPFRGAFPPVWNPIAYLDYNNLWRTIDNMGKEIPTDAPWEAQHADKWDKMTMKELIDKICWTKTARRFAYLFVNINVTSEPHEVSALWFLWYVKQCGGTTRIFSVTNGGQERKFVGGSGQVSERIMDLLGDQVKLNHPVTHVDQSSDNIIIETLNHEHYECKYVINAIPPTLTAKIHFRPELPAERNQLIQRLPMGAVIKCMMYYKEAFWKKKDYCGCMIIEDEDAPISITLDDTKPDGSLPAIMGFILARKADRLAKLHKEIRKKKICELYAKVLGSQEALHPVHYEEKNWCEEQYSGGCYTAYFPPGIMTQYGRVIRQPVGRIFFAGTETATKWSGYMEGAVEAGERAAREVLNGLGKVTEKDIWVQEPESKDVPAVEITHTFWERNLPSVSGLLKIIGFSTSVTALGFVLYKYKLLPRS
Protocol: The effects of the test compounds on MAO-A were investigated using a fluorimetric assay, following a previously described methodology. The inhibitory activity of the compounds was evaluated by their effects on the production of hydrogen peroxide (H2O2) from p-tyramine. The production of H2O2 was detected using Amplex Red reagent in the presence of horseradish peroxidase, where a highly sensitive fluorescent product, resorufin, is produced at stoichiometric amounts. Recombinant human microsomal MAO-A enzyme expressed in baculovirus infected insect cells (BTI-TN-5B1-4), horse-radish peroxidase (type II, lyophilized powder), and p-tyramine hydrochloride were obtained from Sigma Aldrich. 10-Acetyl-3,7-dihydroxyphenoxazine (Amplex Red reagent) was synthesized as described in the literature.
Briefly, 100 µL 50 mM sodium phosphate buffer (pH 7.4, 0.05% Triton X-114) containing the compounds and MAO-A were incubated for 30 min at 37 °C in a flat-bottomed black 96-well microplate, and placed in a dark microplate reader chamber. After the pre-incubation, the reaction was started by adding the final concentrations of 200 µM Amplex Red reagent, 2 U/mL horseradish peroxidase, and 1 mM p-tyramine (final volume, 200 µL). The production of resorufin was quantified based on the fluorescence generated (λex = 530 nm, λem = 590 nm) at 37 °C over a period of 30 min, during which time the fluorescence increased linearly. For control experiments, DMSO was used instead of the appropriate dilutions of the compounds in DMSO. To determine the blank value (b), phosphate-buffered solution replaced the enzyme solution. The initial velocities were calculated from the trends obtained, with each measurement carried out in duplicate. The specific fluorescence emission to obtain the final result was calculated after subtraction of the blank activity (b).

MurA [2] = target: T2, MurA (Escherichia coli, UniProt P0A749); settings: residual activity at 100 μM, single point; cited from earlier work
CatB [3] = target: T3, CatB (Homo sapiens, UniProt P07858); parameters: method as in PMID 30321804; settings: residual activity at 100 μM, single point; cited from earlier work
MurA [4] = target: T2, MurA; test: biochemical; settings: read-out: RA
Protocol: (§1) These fragments were measured in single point enzyme activity assays at 100 μM concentration against MurA and CatB.

CatB [5] = target: T3, CatB; test: CatB single point enzyme activity assay (residual activity); settings: read-out: RA
Protocol: as §1

[6] = Kinetic measurement of adduct formation with L-glutathione (GSH) by HPLC–MS; format: physicochemical; parameters: unit not given here
Protocol: Electrophilic fragments tested against MurA, CatB and MAO-A (25–53, structures shown in Supporting Figure S2 and SMILES provided in Supporting Table S1) represent eight different warhead chemotypes reacting via two reaction mechanisms: Michael-type nucleophilic addition and nucleophilic substitution. The intrinsic thiol reactivities (see Table 1) were determined by kinetic measurement of adduct formation with L-glutathione (GSH), a widely used cysteine surrogate, by an HPLC–MS methodology, as described in the referred study.

[7] = cited from earlier work; for GSH half-life: half-life of adduct formation with L-glutathione
OTUB2 = OTUB2 protein labeling; experimental actives if % labeling higher than 50%; cited from earlier work
NUDT7 = settings: protein labeling at 200 μM; experimental actives if % labeling higher than 50%; cited from earlier work
[8] = thiol reactivity, cited from earlier work
[9] = natural log of average kinetic rate constant
[10] = natural log of average rate constant

T2 sequence (P0A749 whole entry): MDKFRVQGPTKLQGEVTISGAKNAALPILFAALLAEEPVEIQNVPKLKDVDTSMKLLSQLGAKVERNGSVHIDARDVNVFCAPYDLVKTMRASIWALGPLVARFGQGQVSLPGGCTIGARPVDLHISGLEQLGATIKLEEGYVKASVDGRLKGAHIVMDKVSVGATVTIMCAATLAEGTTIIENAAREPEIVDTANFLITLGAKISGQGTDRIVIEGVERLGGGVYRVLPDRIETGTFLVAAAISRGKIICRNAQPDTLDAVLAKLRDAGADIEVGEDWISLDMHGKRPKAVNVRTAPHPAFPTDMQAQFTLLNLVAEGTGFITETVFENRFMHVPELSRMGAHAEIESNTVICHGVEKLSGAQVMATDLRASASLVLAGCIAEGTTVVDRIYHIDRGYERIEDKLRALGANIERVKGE

SMILES	RA [1] [%]	MurA RA (%) (MurA [2])	CatB RA (%) (CatB [3])	remaining activity at 100 µM (MurA [4]) [%]	remaining activity at 100 µM (CatB [5]) [%]	Reactivity, Experimental ln(k) vs GSH [6]	GSH half-life [7] [h]	lnk ([7]; […])	MAO-A inhibition (experimental) ([1]; MAO-A inhibitory assay)	OTUB2 % labeling (OTUB2) [%]	NUDT7 % labeling (NUDT7) [%]	ln(avg k) [8, 9]	ln(avg k) [8, 10]
COC(=O)/C=C/C(=O)OC [Compound 25, COC(=O)/C=C/C(=O)OC]	80	50	106	50	106								
C/C=C/C(=O)OC [Compound 26, C/C=C/C(=O)OC]	68	41	97	41	97	-3.401	20.8						
CCOC(=O)/C=C/c1ccccc1 [Compound 27, CCOC(=O)/C=C/c1ccccc1]	97	92	79	92	79	-4.242	48.2						
C=CC(=O)N(C)C [Compound 29, C=CC(=O)N(C)C]	75	95	75	95	75	-5.211	127						
C=CC(=O)Nc1ccccc1 [Compound 30, C=CC(=O)Nc1ccccc1]	99	78	88	78	88								
C=CS(=O)(=O)c1ccccc1 [Compound 34, C=CS(=O)(=O)c1ccccc1]	52	12	87	12	87			1.45					
O=S(=O)(/C=C/c1ccccc1)c1ccccc1 [Compound 35, O=S(=O)(/C=C/c1ccccc1)c1ccccc1]	87	82	77	82	77	-4.913	94.3						
CCOC(=O)C#Cc1ccccc1 [Compound 36, CCOC(=O)C#Cc1ccccc1]	94	75	70	75	70	-1.906	4.66						
CC#CC(=O)OCC [Compound 37, CC#CC(=O)OCC]	84	82	84	82	84	-3.194	16.9						
CN1C(=O)C=CC1=O [Compound 38, CN1C(=O)C=CC1=O]	5	1	91	1	91	1.936	< 0.1						
O=C1C=CC(=O)N1Cc1ccccc1 [Compound 39, O=C1C=CC(=O)N1Cc1ccccc1]	0	2	87	2	87	1.936	< 0.1		active				
O=C1C=CC(=O)N1C1CCCCC1 [Compound 40, O=C1C=CC(=O)N1C1CCCCC1]	3	1	89	1	89	1.936	< 0.1						
O=C(CCl)Nc1ccccc1 [Compound 48, O=C(CCl)Nc1ccccc1]	95	110	88	110	88								
O=C(CCl)NC1CCSC1=O (centres unmarked) [PCM-0103062, O=C(CCl)NC1CCSC1=O]										0	0	-17.032	-17.032
O=C(CCl)N1CCN(Cc2ccccc2)CC1 [PCM-0103063, O=C(CCl)N1CCN(Cc2ccccc2)CC1]										35	7	-16.178	-16.178
O=C(CCl)N(C1CCCC1)C1CC1 [PCM-0103064, O=C(CCl)N(C1CCCC1)C1CC1]										0	0	-16.942	-16.942
O=C(CCl)NCC1CCC1 [PCM-0103065, O=C(CCl)NCC1CCC1]										0	0	-17.462	-17.462
Cc1cc(NC(=O)CCl)n(-c2ccccc2F)n1 [PCM-0103066, Cc1cc(NC(=O)CCl)n(-c2ccccc2F)n1]										44	0	-15.986	-15.986
O=C(CCl)N1CCC(c2nc3ccccc3s2)CC1 [PCM-0103068, O=C(CCl)N1CCC(c2nc3ccccc3s2)CC1]										0	65	-15.772	-15.772
COCC(=O)NNC(=O)CCl [PCM-0103070, COCC(=O)NNC(=O)CCl]										0	0	-17.475	-17.475
O=C(CCl)N1CCCc2cccc(F)c21 [PCM-0103071, O=C(CCl)N1CCCc2cccc(F)c21]										0	40	-16.007	-16.007
Cc1ccsc1CNC(=O)CCl [PCM-0103075, Cc1ccsc1CNC(=O)CCl]										55	0	-16.632	-16.632
O=C(CCl)Nc1ccon1 [PCM-0103077, O=C(CCl)Nc1ccon1]										30	0	-16.220	-16.220
O=C(CCl)NCc1ccc(Cl)s1 [PCM-0103080, O=C(CCl)NCc1ccc(Cl)s1]										79	0	-16.506	-16.506
CN(Cc1cc(Br)cs1)C(=O)CCl [PCM-0103081, CN(Cc1cc(Br)cs1)C(=O)CCl]										0	0	-15.601	-15.601
Cc1ccc(N(C(=O)CCl)C2C=CS(=O)(=O)C2)cc1C (centres unmarked) [PCM-0103082, Cc1ccc(N(C(=O)CCl)C2C=CS(=O)(=O)C2)cc1C]										0	15	-15.512	-15.512

From paper PMC7904743, “WIDOCK: a reactive docking protocol for virtual screening of covalent inhibitors” (Journal of Computer-Aided Molecular Design, 2021)
